Test results: article PMC6199744, “Development of Chemical Proteomics for the Folateome and Analysis of the Kinetoplastid Folateome” (ACS Infectious Diseases, 2018)
Where two headings read alike, the source gives them in different places.

Tested on: T. brucei lysate proteins
Format: binding, Trypanosoma brucei
Conditions: vehicle control = 1

NCCCNc1ccc(C(=O)NC(CCC(=O)O)C(=O)O)cc1 (centres unmarked) [compound 7]
fold change vs vehicle control (protein TB427.04.760 GAMMA-ADAPTIN 1, PUTATIVE): 0.84
fold change (protein TB427.05.1210 SHORT-CHAIN DEHYDROGENASE, PUTATIVE): 0.95
fold change vs vehicle control (protein TB427.05.1320 HY[…], CONSERVED): 0.92
fold change (protein TB427.05.3030 INTR[…] PROTEIN IFT122, PUTATIVE): 0.96
fold change vs vehicle control (protein TB427.05.4560 GUANINE DEAMINASE, PUTATIVE): 0.91
fold change vs vehicle control (protein TB427.06.1070 HY[…], CONSERVED): 1.17
fold change (protein TB427.06.2550 RNA-BINDING PROTEIN, PUTATIVE): 1.51
fold change (protein TB427.06.3500 ENDOSOMAL T[…] RME-8, PUTATIVE): 0.89
fold change (protein TB427.06.3630 SPHINGOSINE 1-PHOSPHATE LYASE, PUTATIVE): 0.95
fold change (protein TB427.06.3650 ADP-RI[…], PUTATIVE): 0.97
fold change (protein TB427.06.3670 PAR[…] COMPONENT, PUTATIVE): 1
fold change (protein TB427.06.700 ALANYL-TRNA SYNTHETASE, PUTATIVE): 0.84
fold change vs vehicle control (protein TB427.07.1300 PROTEIN DISULFIDE ISOMERASE, PUTATIVE): 1.3
fold change vs vehicle control (protein TB427.07.3160 DYNEIN HEAVY CHAIN, CYTOSOLIC, PUTATIVE): 0.87
fold change (protein TB427.07.3980 IMMU[…], PUTATIVE): 0.91
fold change vs vehicle control (protein TB427.07.4170 FATTY ACID ELONGASE, PUTATIVE): 0.97
fold change (protein TB427.07.4180 FATTY ACID ELONGASE, PUTATIVE): 1.1
fold change (protein TB427.07.4970 GLUTAMINE SYNTHETASE, PUTATIVE): 0.98
fold change vs vehicle control (protein TB427.07.7500 THYMINE-7-HYDROXYLASE, PUTATIVE): 0.95
fold change vs vehicle control (protein TB427.08.1210 HY[…], CONSERVED): 1.49
fold change (protein TB427.08.2060 HY[…], CONSERVED): 0.91
fold change (protein TB427.08.2080 HY[…], CONSERVED): 0.91
fold change (protein TB427.08.3150 T-COMPLEX PROTEIN 1, GAMMA SUBUNIT, PUTATIVE): 0.97
fold change (protein TB427.08.4210 HY[…], CONSERVED): 0.91
fold change (protein TB427.08.5760 HY[…], CONSERVED): 0.99
fold change (protein TB427.10.10350 PROTEIN KINASE, PUTATIVE): 0.62
fold change (protein TB427.10.10360 MICROTUBULE-[…], PUTATIVE): 0.85
fold change (protein TB427.10.1060 T-COMPLEX PROTEIN 1, DELTA SUBUNIT, PUTATIVE): 0.96
fold change vs vehicle control (protein TB427.10.10610 PROTEIN TYROSINE PHOSPHATASE, PUTATIVE): 1.47
fold change (protein TB427.10.1070 CELL DIVISION PROTEIN KINASE 2 HOMOLOG 1 (CRK1)): 0.93
fold change vs vehicle control (protein TB427.10.11760 PUMILIO/PUF RNA BINDING PROTEIN 6): 0.99
fold change (protein TB427.10.12710 HEAT SHOCK PROTEIN, PUTATIVE): 0.77
fold change vs vehicle control (protein TB427.10.12820 HY[…], CONSERVED): 0.93
fold change vs vehicle control (protein TB427.10.12890 BI[…]-TRNA SYNTHETASE, PUTATIVE): 0.98
fold change (protein TB427.10.14140 PYRUVATE KINASE 1): 0.86
fold change vs vehicle control (protein TB427.10.14180 PROTEIN TRANSPORT PROTEIN SEC13, PUTATIVE): 0.89
fold change vs vehicle control (protein TB427.10.14470 INTR[…] PROTEIN IFT140, PUTATIVE): 1.33
fold change (protein TB427.10.1450 HY[…], CONSERVED): 0.88
fold change (protein TB427.10.14860 HY[…], CONSERVED): 0.95
fold change vs vehicle control (protein TB427.10.14950 RNA BINDING PROTEIN, PUTATIVE): 1.37
fold change (protein TB427.10.2350 PYRUVATE DEH[…] E3 BINDING PROTEIN, PUTATIVE): 0.93
fold change (protein TB427.10.2440 METACASPASE MCA4): 0.83
fold change vs vehicle control (protein TB427.10.3470 HY[…], CONSERVED): 1.2
fold change (protein TB427.10.4610 […]-MANNOSE SYNTHASE, PUTATIVE): 0.98
fold change vs vehicle control (protein TB427.10.5810 HY[…], CONSERVED): 0.88
fold change (protein TB427.10.5840 T[…] 1-BETA, PUTATIVE): 0.92
fold change (protein TB427.10.5850 HY[…], CONSERVED): 0.88
fold change (protein TB427.10.6150 […]/BEIGE PROTEIN, PUTATIVE): 0.99
fold change (protein TB427.10.6310 MAJOR VAULT PROTEIN, PUTATIVE): 0.93
fold change (protein TB427.10.730 ATP SYNTHASE, PUTATIVE): 0.84
fold change vs vehicle control (protein TB427.10.7410 SUCCINYL-COA LIGASE GDP-FORMING] BETA-CHAIN, PUTATIVE): 0.94
fold change (protein TB427.10.8190 T-COMPLEX PROTEIN 1, THETA SUBUNIT, PUTATIVE): 0.94
fold change vs vehicle control (protein TB427.10.8230 PROTEIN DISULFIDE ISOMERASE): 1.25
fold change (protein TB427.10.8720 HY[…], CONSERVED): 1
fold change vs vehicle control (protein TB427.10.8850 HY[…], CONSERVED): 0.93
fold change (protein TB427.10.9890 HY[…], CONSERVED): 0.65
fold change (protein TB927.10.12960 RAS-RELATED PROTEIN RAB-5): 0.98
fold change (protein TB927.10.1550 […]-ATP-ASE SUBUNIT 5): 0.9
fold change (protein TB927.1.2330 BETA TUBULIN): 0.99
fold change vs vehicle control (protein TB927.10.2890 ENOLASE): 0.91
fold change (protein TB927.10.3660 ASPARTATE AMINOTRANSFERASE): 0.96
fold change (protein TB927.10.4180 TFIIF-[…] PHOSPHATASE, PUTATIVE): 0.87
fold change (protein TB927.10.5500 HY[…], CONSERVED): 0.99
fold change (protein TB927.10.6050 CLATHRIN HEAVY CHAIN): 0.87
fold change vs vehicle control (protein TB927.10.8030 HY[…], CONSERVED): 1
fold change vs vehicle control (protein TB927.10.8940 HY[…], CONSERVED): 0.97
fold change (protein TB927.2.100 RETRO[…] SPOT (RHS) PROTEIN, PUTATIVE,RETRO[…] SPOT PROTEIN 1 (RHS1), PUTATIVE): 0.9
fold change vs vehicle control (protein TB927.2.2440 […]-ATPASE SUBUNIT 6): 1.85
fold change (protein TB927.2.3800 MRNA […], PUTATIVE): 0.77
fold change (protein TB927.3.1240 PROTEIN PHOSPHATASE 2A, PUTATIVE): 0.77
fold change vs vehicle control (protein TB927.3.2960 INOSINE-ADENOSINE-GUANOSINE-[…]): 0.82
fold change (protein TB927.3.3190 SERINE/THREONINE-PROTEIN KINASE, PUTATIVE): 0.89
fold change vs vehicle control (protein TB927.3.3450 ADP-RI[…]-LIKE PROTEIN 3A, PUTATIVE): 0.76
fold change (protein TB927.3.3780 TRYPAREDOXIN): 0.9
fold change vs vehicle control (protein TB927.3.5120 HY[…], CONSERVED (Ankyrin repeats (3 copies), putative)): 1.2
fold change vs vehicle control (protein TB927.3.740 HY[…], CONSERVED): 0.97
fold change (protein TB927.4.3590 T[…] 1-BETA, PUTATIVE): 0.77
fold change (protein TB927.5.3220 SIGNAL PEPTIDASE TYPE I, PUTATIVE): 0.9
fold change vs vehicle control (protein TB927.5.4440 DYNEIN LIGHT CHAIN, PUTATIVE): 1.1
fold change (protein TB927.6.2200 HY[…], CONSERVED): 0.97
fold change (protein TB927.6.4460 S-ADENOSYLMETHIONINE DECARBOXYLASE): 0.97
fold change vs vehicle control (protein TB927.6.560 CYSTEINE PEPTIDASE C (CPC)): 1
fold change vs vehicle control (protein TB927.7.4470 HY[…], CONSERVED): 1.22
fold change (protein TB927.7.6320 HY[…], CONSERVED): 0.96
fold change vs vehicle control (protein TB927.7.7430 ATP SYNTHASE ALPHA CHAIN, MIT[…]): 0.93
fold change (protein TB927.8.1990 PEROXIDOXIN): 0.67
fold change vs vehicle control (protein TB927.8.4810 PROHIBITIN 1): 0.99
fold change (protein TB927.8.890 SMALL GTP-BINDING PROTEIN RAB1, PUTATIVE): 0.93
fold change (protein TB-292 MEMBRANE ASSOCIATED PROTEIN): 0.93
